Laboratory results taken from the supplement of paper PMC10627819.

Legend:
S. pneumoniae D39V = assay: Bliss interaction score (quartile over a dose matrix) (fitness difference); higher = more antagonism (negative = synergy)
Method in brief: (§1)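 The Bliss score was calculated by subtracting the expected fitness, the product of single-drug values, from the observed fitness. OD595 at entry into stationary phase, over the plate's robust no-drug mean and capped at 1, served as the fitness readout. Single-drug values were inferred from combination data, and scores are summarised by quartiles across technical, biological and donor/recipient replicates.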

B. subtilis 168 = assay: as above
Method in brief: as §1

S. aureus DSM 20231 [1] = assay: as above
Method in brief: as §1

S. aureus Newman [2] = assay: as above
Method in brief: as §1

S. aureus DSM 20231 [3] = assay: fitness (endpoint OD595 vs no drug) (fraction); higher = more growth
Method in brief: (§2)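 Fitness was defined as the optical density at the transition into stationary phase relative to the robust mean of no-drug control wells. Values were capped at 1. Cultures were started at OD595 0.01 in 384-well plates (30 µl, or 55 µl for S. pneumoniae) in TSB, LB Lennox or CY at 37 °C. OD595 was recorded every 30 min over 14 h, with the first reading subtracted as background.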

S. aureus Newman [4] = assay: as above
Method in brief: as §2

[5] = first compound 0.75 µg/mL, partner 0.125 µg/mL
[6] = first compound 1.5 µg/mL, partner 0.125 µg/mL
[7] = first compound 3 µg/mL, partner 0.125 µg/mL
[8] = first compound 3 µg/mL, partner 0.0312 µg/mL
[9] = first compound 3 µg/mL, partner 0.0625 µg/mL
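Throughout, for Bliss interaction score (quartile over a dose matrix): first quartile when negative (synergy) and third quartile when positive (antagonism).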

SMILES | Bliss interaction score (S. pneumoniae D39V) | Bliss interaction score (B. subtilis 168) | Bliss interaction score (S. aureus DSM 20231 [1]) | Bliss interaction score (S. aureus Newman [2]) | other results
CC(=O)OC[C@H]1O[C@@H]([S-])[C@H](OC(C)=O)[C@@H](OC(C)=O)[C@@H]1OC(C)=O.CCP(CC)CC.[Au+] [Auranofin] + C[C@H]1c2cccc(O)c2C(=O)C2=C(O)[C@]3(O)C(=O)C(C(N)=O)=C(O)[C@@H](N(C)C)[C@@H]3[C@@H](O)[C@@H]21 [Doxycycline] | 0.052 | 0.0704 | -0.0178 | 0.0622 | –
CC[C@H]1OC(=O)[C@H](C)[C@@H](O[C@H]2C[C@@](C)(OC)[C@@H](O)[C@H](C)O2)[C@H](C)[C@@H](O[C@@H]2O[C@H](C)C[C@H](N(C)C)[C@H]2O)[C@](C)(OC)C[C@@H](C)C(=O)[C@H](C)[C@@H](O)[C@]1(C)O [Clarithromycin] + CO[C@@]12[C@H](COC(N)=O)C3=C(C(=O)C(C)=C(N)C3=O)N1C[C@@H]1N[C@@H]12 [MitomycinC] | -0.0527 | 0.036 | -0.0723 | 0.0537 | –
CC(=O)OC[C@H]1O[C@@H]([S-])[C@H](OC(C)=O)[C@@H](OC(C)=O)[C@@H]1OC(C)=O.CCP(CC)CC.[Au+] [Auranofin] + C1=CC(=CC(=C1)Cl)NN=C(C#N)C#N [CCCP] | 0.0425 | 0.0372 | 0.0194 | 0.0798 | –
CC(=O)O[C@H]1C[C@@]2(C)[C@@H](C[C@@H](O)[C@H]3[C@@]4(C)CC[C@@H](O)[C@@H](C)[C@@H]4CC[C@@]32C)/C1=C(\CCC=C(C)C)C(=O)O [Fusidic acid] + CN(N=O)C(=O)N[C@@H](C=O)[C@@H](O)[C@H](O)[C@H](O)CO [Streptozotocin] | 0.0486 | 0.0745 | -0.0166 | -0.0145 | –
C[C@@H](O)[C@H]1C(=O)N2C(C(=O)O)=C(SCCNC=N)C[C@H]12 [Imipenem] + CO[C@@]12[C@H](COC(N)=O)C3=C(C(=O)C(C)=C(N)C3=O)N1C[C@@H]1N[C@@H]12 [MitomycinC] | -0.0563 | -0.0977 | -0.03 | 0.0577 | –
CC(=O)OC[C@H]1O[C@@H]([S-])[C@H](OC(C)=O)[C@@H](OC(C)=O)[C@@H]1OC(C)=O.CCP(CC)CC.[Au+] [Auranofin] + CN(N=O)C(=O)N[C@@H](C=O)[C@@H](O)[C@H](O)[C@H](O)CO [Streptozotocin] | 0.105 | 0.0355 | -0.0317 | 0.0723 | –
O=C(O[C@@H]1Cc2c(O)cc(O)cc2O[C@@H]1c1cc(O)c(O)c(O)c1)c1cc(O)c(O)c(O)c1 [EGCG] + CC[C@H]1OC(=O)[C@H](C)[C@@H](O[C@H]2C[C@@](C)(OC)[C@@H](O)[C@H](C)O2)[C@H](C)[C@@H](O[C@@H]2O[C@H](C)C[C@H](N(C)C)[C@H]2O)[C@](C)(O)C[C@@H](C)C(=O)[C@H](C)[C@@H](O)[C@]1(C)O [Erythromycin] | 0.0597 | 0.0527 | -0.0558 | -0.0582 | –
CC(=O)OC[C@H]1O[C@@H]([S-])[C@H](OC(C)=O)[C@@H](OC(C)=O)[C@@H]1OC(C)=O.CCP(CC)CC.[Au+] [Auranofin] + CN[C@@H]1[C@H](O)[C@H](NC)[C@H]2O[C@@]3(O)C(=O)C[C@@H](C)O[C@H]3O[C@@H]2[C@H]1O [Spectinomycin] | -0.162 | 0.0604 | 0.0611 | 0.0532 | –
CCC[C@@H]1C[C@@H](C(=O)N[C@@H]([C@H]2O[C@H](SC)[C@H](O)[C@@H](O)[C@H]2O)[C@H](C)Cl)N(C)C1 [Clindamycin] + CN[C@H](CC(C)C)C(=O)N[C@H]1C(=O)N[C@@H](CC(N)=O)C(=O)N[C@H]2C(=O)N[C@H]3C(=O)N[C@H](C(=O)N[C@H](C(=O)O)c4cc(O)cc(O)c4-c4cc3ccc4O)[C@H](O[C@H]3C[C@](C)(N)[C@@H](O)[C@H](C)O3)c3ccc(c(Cl)c3)Oc3cc2cc(c3O[C@@H]2O[C@H](CO)[C@@H](O)[C@H](O)[C@H]2O[C@H]2C[C@](C)(NCc3ccc(-c4ccc(Cl)cc4)cc3)[C@@H](O)[C@H](C)O2)Oc2ccc(cc2Cl)[C@H]1O [Oritavancin] | 0.0382 | 0.0359 | 0.0257 | 0.0703 | –
N[C@@H]1CONC1=O [CycloserineD] + CN[C@H](CC(C)C)C(=O)N[C@H]1C(=O)N[C@@H](CC(N)=O)C(=O)N[C@H]2C(=O)N[C@H]3C(=O)N[C@H](C(=O)N[C@H](C(=O)O)c4cc(O)cc(O)c4-c4cc3ccc4O)[C@H](O[C@H]3C[C@](C)(N)[C@@H](O)[C@H](C)O3)c3ccc(c(Cl)c3)Oc3cc2cc(c3O[C@@H]2O[C@H](CO)[C@@H](O)[C@H](O)[C@H]2O[C@H]2C[C@](C)(NCc3ccc(-c4ccc(Cl)cc4)cc3)[C@@H](O)[C@H](C)O2)Oc2ccc(cc2Cl)[C@H]1O [Oritavancin] | 0.0458 | 0.0352 | -0.0757 | 0.0585 | –
N[C@@H]1CONC1=O [CycloserineD] + C[C@@H](O)[C@H]1C(=O)N2C(C(=O)O)=C(SCCNC=N)C[C@H]12 [Imipenem] | -0.235 | 0.0545 | 0.0715 | -0.0358 | –
O=C(O[C@@H]1Cc2c(O)cc(O)cc2O[C@@H]1c1cc(O)c(O)c(O)c1)c1cc(O)c(O)c(O)c1 [EGCG] + CN[C@H](CC(C)C)C(=O)N[C@H]1C(=O)N[C@@H](CC(N)=O)C(=O)N[C@H]2C(=O)N[C@H]3C(=O)N[C@H](C(=O)N[C@H](C(=O)O)c4cc(O)cc(O)c4-c4cc3ccc4O)[C@H](O[C@H]3C[C@](C)(N)[C@@H](O)[C@H](C)O3)c3ccc(c(Cl)c3)Oc3cc2cc(c3O[C@@H]2O[C@H](CO)[C@@H](O)[C@H](O)[C@H]2O[C@H]2C[C@](C)(NCc3ccc(-c4ccc(Cl)cc4)cc3)[C@@H](O)[C@H](C)O2)Oc2ccc(cc2Cl)[C@H]1O [Oritavancin] | 0.0545 | 0.0249 | 0.176 | 0.318 | –
CC(=O)O[C@H]1C[C@@]2(C)[C@@H](C[C@@H](O)[C@H]3[C@@]4(C)CC[C@@H](O)[C@@H](C)[C@@H]4CC[C@@]32C)/C1=C(\CCC=C(C)C)C(=O)O [Fusidic acid] + CN[C@H](CC(C)C)C(=O)N[C@H]1C(=O)N[C@@H](CC(N)=O)C(=O)N[C@H]2C(=O)N[C@H]3C(=O)N[C@H](C(=O)N[C@H](C(=O)O)c4cc(O)cc(O)c4-c4cc3ccc4O)[C@H](O[C@H]3C[C@](C)(N)[C@@H](O)[C@H](C)O3)c3ccc(c(Cl)c3)Oc3cc2cc(c3O[C@@H]2O[C@H](CO)[C@@H](O)[C@H](O)[C@H]2O[C@H]2C[C@](C)(NCc3ccc(-c4ccc(Cl)cc4)cc3)[C@@H](O)[C@H](C)O2)Oc2ccc(cc2Cl)[C@H]1O [Oritavancin] | 0.0765 | 0.0477 | 0.0159 | 0.0249 | –
O=C(N[C@H](CO)[C@H](O)c1ccc([N+](=O)[O-])cc1)C(Cl)Cl [Chloramphenicol] + COc1cc(Cc2cnc(N)nc2N)cc(OC)c1OC [Trimethoprim] | -0.081 | 0.0616 | 0.133 | – | fitness (S. aureus DSM 20231 [3]; [5]): 0.613; fitness (S. aureus DSM 20231 [3]; first compound 0.75 µg/mL, partner 0.25 µg/mL): 0.648; fitness (S. aureus DSM 20231 [3]; first compound 0.75 µg/mL, partner 0.5 µg/mL): 0.48; fitness (S. aureus DSM 20231 [3]; first compound 0.75 µg/mL, partner 1 µg/mL): 0.0816; fitness (S. aureus DSM 20231 [3]; [6]): 0.499; fitness (S. aureus DSM 20231 [3]; first compound 1.5 µg/mL, partner 0.25 µg/mL): 0.492; fitness (S. aureus DSM 20231 [3]; first compound 1.5 µg/mL, partner 0.5 µg/mL): 0.405; fitness (S. aureus DSM 20231 [3]; [7]): 0.0821; fitness (S. aureus DSM 20231 [3]; first compound 3 µg/mL, partner 0.25 µg/mL): 0.0908; fitness (S. aureus DSM 20231 [3]; first compound 3 µg/mL, partner 0.5 µg/mL): 0.0866; fitness (S. aureus DSM 20231 [3]; first compound 3 µg/mL, partner 1 µg/mL): 0.0882
O=C(N[C@H](CO)[C@H](O)c1ccc([N+](=O)[O-])cc1)C(Cl)Cl [Chloramphenicol] + C[C@@H](O)[C@H]1C(=O)N2C(C(=O)O)=C(SCCNC=N)C[C@H]12 [Imipenem] | -0.0662 | – | 0.0442 | -0.0316 | –
O=C(N[C@H](CO)[C@H](O)c1ccc([N+](=O)[O-])cc1)C(Cl)Cl [Chloramphenicol] + CCC[C@@H]1C[C@@H](C(=O)N[C@@H]([C@H]2O[C@H](SC)[C@H](O)[C@@H](O)[C@H]2O)[C@H](C)Cl)N(C)C1 [Clindamycin] | 0.155 | – | 0.0541 | -0.0758 | fitness (S. aureus DSM 20231 [3]; first compound 0.75 µg/mL, partner 0.0625 µg/mL): 0.0956; fitness (S. aureus DSM 20231 [3]; [5]): 0.0527; fitness (S. aureus DSM 20231 [3]; [6]): 0.0897; fitness (S. aureus DSM 20231 [3]; [8]): 0.137; fitness (S. aureus DSM 20231 [3]; [9]): 0.0841; fitness (S. aureus DSM 20231 [3]; [7]): 0.0677; fitness (S. aureus Newman [4]; first compound 0.75 µg/mL, partner 0.0312 µg/mL): 0.539; fitness (S. aureus Newman [4]; [5]): 0.0906; fitness (S. aureus Newman [4]; first compound 1.5 µg/mL, partner 0.0312 µg/mL): 0.392; fitness (S. aureus Newman [4]; [6]): 0.0591; fitness (S. aureus Newman [4]; [8]): 0.11; fitness (S. aureus Newman [4]; [9]): 0.0976; fitness (S. aureus Newman [4]; [7]): 0.0645
O=C(N[C@H](CO)[C@H](O)c1ccc([N+](=O)[O-])cc1)C(Cl)Cl [Chloramphenicol] + CN(C)C(=O)C(CCN1CCC(O)(c2ccc(Cl)cc2)CC1)(c1ccccc1)c1ccccc1 [Loperamide] | 0.146 | -0.18 | – | -0.0555 | –
